The text below walks through data of patent publication US3968204A, “Antibiotic A-2315” (priority 1975, dated 1976).

Assay [1] has as its system Staphylococcus aureus 3074. Briefly: Agar-dilution MIC. Format: cell-based.
A further assay deals with Actinomyces bovis. Kind of assay: MIC, anaerobic bacteria. The class given is cell-based.
For the next assay, the system named is Clostridium perfringens. Briefly: microbe, parasite or virus in culture. Format: cell-based.
The next assay relates to Eubacterium aerofaciens. Kind of assay: MIC, anaerobic bacteria. Format: cell-based. The conditions noted are these: Collinsella aerofaciens.
For another assay, the system named is Peptococcus anaerobius. Kind of assay: MIC, anaerobic bacteria. The class given is cell-based.
In assay [2] the test system is Mycoplasma gallisepticum isolate 34159 (tylosin resistant). Briefly: Broth-dilution MIC. The class given is cell-based. Conditions: Mycoplasmoides gallisepticum. The text has this:
(§1) Another useful property of the A-2315 antibiotics is activity against Mycoplasma gallisepticum, an organism pathogenic for poultry. Of particular interest is the activity of the A-2315 antibiotics against strains of this organism that are resistant to tylosin. The minimal inhibitory concentrations of A-2315 factor A, as determined by in vitro broth-dilution studies, are summarized in Table V below: […]

Assay [3] has as its system Mycoplasma gallisepticum isolate 38502 (tylosin sensitive). Kind of assay: Broth-dilution MIC. Format: cell-based. Conditions: Mycoplasmoides gallisepticum.
Excerpt: as §1

The test system of assay [4] is Mycoplasma gallisepticum isolate 41313 (tylosin resistant). Kind of assay: Broth-dilution MIC. The class given is cell-based. The conditions noted are these: Mycoplasmoides gallisepticum.
Excerpt: as §1

Assay [5] concerns Mycoplasma gallisepticum isolate 42854 (tylosin resistant). Kind of assay: Broth-dilution MIC. The conditions noted are these: Mycoplasmoides gallisepticum. Format: cell-based.
Excerpt: as §1

For assay [6], the system named is Mycoplasma gallisepticum isolate 43480 (tylosin resistant). Kind of assay: Broth-dilution MIC. Conditions: Mycoplasmoides gallisepticum. The class given is cell-based.
Excerpt: as §1

A further assay relates to Candida albicans. Briefly: Disc-plate MIC. Conditions: Disc-Plate Method.

Each structure is given as a SMILES string. Values after ≈ are worked out from the molar mass of the structure shown.

As for `CC1=CC(O)CC(O)Cc2nc(co2)C(=O)NC(C)C(=O)OC(C(C)C)C(C)C=CC(=O)NCC=C1` (centres unmarked) [Factor A], the MIC amounted to 1.56 µg/mL (≈ 3.1 µM) in [1]; 16 µg/mL (≈ 31.8 µM) against Actinomyces bovis; 32 µg/mL (≈ 63.5 µM) against Clostridium perfringens; 16 µg/mL (≈ 31.8 µM) against Eubacterium aerofaciens; 2 µg/mL (≈ 3.97 µM) against Peptococcus anaerobius; 0.195 µg/mL (≈ 0.387 µM) in [2]. For the same compound, the MIC was under 0.097 µg/mL in assay [3]; 0.78 µg/mL (≈ 1.55 µM) in [4]; 0.195 µg/mL (≈ 0.387 µM) in assay [5]; under 0.097 µg/mL in [6]; 100.0 μg/disc against Candida albicans.
